# Legend:
# Format in all cases: in vivo
# [1] = test system: Myzus persicae (Green peach aphids); test: Curative control of Myzus persicae mixed aged population on Chinese cabbage, spray application; conditions: 120 and 60 g ai/ha
# Text: (§1) Examples 1 to 3 describe biological tests relating to the curative and preventative control of a series of insects with the spray application of dilutions of a formulation containing clethodim as sole active ingredient (ai) (EC240 formulation (SELECT®)) in combination with OCHIMAR adjuvant (Syngenta—alkyl ester of phosphoric acid (752 g/L EC) formulation) to bean or cabbage plants infested with Bemisia tabaci, Frankliniella occidentalis or Myzus persicae (four replicates). The testing protocols and insect control effects are shown below.
# Curative control of Myzus persicae (Green peach aphids), mixed aged population, on Chinese cabbage (BBCH19).
# All adjuvant containing treatments were applied with 250 mL adjuvant (OCHIMA®) per hectare.
# [2] = test system: Bemisia tabaci (Silverleaf whitefly); test: Curative control of Bemisia tabaci second nymph stage (N2) on French beans, spray application
# Text: as §1
# Curative control of Bemisia tabaci (Silverleaf whitefly), second nymph stage (N2), treated on French beans (BBCH12):
# All treatments (including check) were applied with 250 ml adjuvant (OCHIMA®) per hectare.
# [3] = test system: Frankliniella occidentalis (Western flower thrips); test: Frankliniella occidentalis mixed aged population infested on French beans three hours after treatment, plant damage evaluation; conditions: 60 g ai/ha; plant damage by feeding on leaf tissue
# Text: as §1
# Frankliniella occidentalis (Western flower thrips), mixed aged population, infested on French beans (BBCH12) three hours after treatment.
# All treatments (including check) were applied with 250 mL adjuvant (OCHIMA®) per hectare. The above table relates to an evaluation of plant damage caused by Western flower thrips feeding on leaf tissue.
smiles,measurement,setting,value
"CCSC(C)CC1CC(=O)C(/C(CC)=N\OC/C=C/Cl)=C(O)C1 (racemic) [clethodim, (5RS)-2-[(1EZ)-N-{[(2E)-3-chloroallyl]oxy}propanimidoyl]-5-[(2RS)-2-(ethylthio)propyl]-3-hydroxycyclohex-2-en-1-one]",control effect against aphids against the check treatment,[1],at best minor
same,efficacy against whiteflies compared to thrips or aphids,[2]; data in Tables 1 to 3,surprising selective efficacy
same,control effect against whiteflies against the check treatment,[2]; two ai application rates (120 and 60 g ai/ha),significant control effect
same,control effect against Western flower thrips against the check treatment,[3],at best minor
